According to paper PMC7245553 (Cell chemical biology, 2020):
≈ marks a conversion by molar mass, not a printed value. Where “and” joins values, the source holds several entries; their conditions need not be identical. Equal entries are not always repeated. Where two headings read alike, the source gives them in different places.

What was measured:
M. tuberculosis H37Rv [1] = experiment: M. tuberculosis MIC assay; settings: for MIC H37Rv: 90% inhibition of bacterial growth, Alamar blue
in vitro = assay type: cell-based; settings: African green monkey
physchem = assay type: physicochemical; settings: pH 7.4, aqueous buffer, kinetic from dmso stock
[2] = Mouse liver microsomal stability; assay type: in vitro ADME; settings: pH 7.4
M. tuberculosis [3] = experiment: M. tuberculosis MBC assay; assay type: cell-based; settings: Mycobacterium tuberculosis
[4] = test system: M. tuberculosis mc^26206 within J774.1 cells; experiment: microbe, parasite or virus in culture; assay type: cell-based; settings: Mycobacterium tuberculosis, J774.1, read-out: IC50, intracellular growth of M. tuberculosis mc^26206 within J774.1 cells
M. tuberculosis H37Rv [5] = experiment: Mouse model of acute M. tuberculosis infection; assay type: in vivo, BALB/c mice; settings: for bacterial load in the spleen: po qd
[6] = assay type: in vitro ADME; settings: human, 5 µM
M. tuberculosis [7] = experiment: M. tuberculosis killing kinetics; assay type: cell-based, Mycobacterium tuberculosis; settings: for cidality in vitro: H37Rv strain; for killing in combination with INH: each at 10× MIC
[8] = assay type: in vitro ADME; settings: mouse, 5 µM
[9] = test system: CYP1A2, CYP2C9, CYP2C19, CYP2D6, CYP3A4 (one value for the profile of isoforms; except 2C19 for compound 10); experiment: in vitro; assay type: in vitro ADME; settings: human, pH 7.4
cytochrome P450 2C19 = cytochrome P450 2C19 (Homo sapiens, UniProt P33261); experiment: Human cytochrome P450 2C19 inhibition; assay type: in vitro ADME
[10] = Mouse pharmacokinetic profiling; assay type: in vivo, CD-1 mice; settings: female, CD-1, mouse; for AUC(0-t): po
M. tuberculosis [11] = experiment: Mouse model of chronic M. tuberculosis infection; assay type: in vivo, BALB/c mice; settings: for reduction in CFUs, controls: 10 or 20 mg/kg qd po
[12] = Dog liver microsomal stability; assay type: in vitro ADME; settings: pH 7.4
Enterobacter cloacae = experiment: MIC versus Enterobacter cloacae; assay type: cell-based
Enterococcus faecium = experiment: MIC versus Enterococcus faecium; assay type: cell-based
Staphylococcus aureus = experiment: MIC versus Staphylococcus aureus; assay type: cell-based
hERG = hERG (Homo sapiens, UniProt Q12809); experiment: hERG inhibition; assay type: biochemical
[13] = test system: mycolic acid biosynthesis within M. tuberculosis H37Rv; experiment: Mycolic acid biosynthesis analysis; assay type: cell-based, Mycobacterium tuberculosis
Klebsiella pneumoniae = experiment: MIC versus Klebsiella pneumoniae; assay type: cell-based
KasA = KasA (Mycobacterium tuberculosis, UniProt P9WQD9); experiment: Microscale thermophoresis binding assay
Pseudomonas aeruginosa = experiment: MIC versus Pseudomonas aeruginosa; assay type: cell-based

hERG, sequence (Q12809 whole entry): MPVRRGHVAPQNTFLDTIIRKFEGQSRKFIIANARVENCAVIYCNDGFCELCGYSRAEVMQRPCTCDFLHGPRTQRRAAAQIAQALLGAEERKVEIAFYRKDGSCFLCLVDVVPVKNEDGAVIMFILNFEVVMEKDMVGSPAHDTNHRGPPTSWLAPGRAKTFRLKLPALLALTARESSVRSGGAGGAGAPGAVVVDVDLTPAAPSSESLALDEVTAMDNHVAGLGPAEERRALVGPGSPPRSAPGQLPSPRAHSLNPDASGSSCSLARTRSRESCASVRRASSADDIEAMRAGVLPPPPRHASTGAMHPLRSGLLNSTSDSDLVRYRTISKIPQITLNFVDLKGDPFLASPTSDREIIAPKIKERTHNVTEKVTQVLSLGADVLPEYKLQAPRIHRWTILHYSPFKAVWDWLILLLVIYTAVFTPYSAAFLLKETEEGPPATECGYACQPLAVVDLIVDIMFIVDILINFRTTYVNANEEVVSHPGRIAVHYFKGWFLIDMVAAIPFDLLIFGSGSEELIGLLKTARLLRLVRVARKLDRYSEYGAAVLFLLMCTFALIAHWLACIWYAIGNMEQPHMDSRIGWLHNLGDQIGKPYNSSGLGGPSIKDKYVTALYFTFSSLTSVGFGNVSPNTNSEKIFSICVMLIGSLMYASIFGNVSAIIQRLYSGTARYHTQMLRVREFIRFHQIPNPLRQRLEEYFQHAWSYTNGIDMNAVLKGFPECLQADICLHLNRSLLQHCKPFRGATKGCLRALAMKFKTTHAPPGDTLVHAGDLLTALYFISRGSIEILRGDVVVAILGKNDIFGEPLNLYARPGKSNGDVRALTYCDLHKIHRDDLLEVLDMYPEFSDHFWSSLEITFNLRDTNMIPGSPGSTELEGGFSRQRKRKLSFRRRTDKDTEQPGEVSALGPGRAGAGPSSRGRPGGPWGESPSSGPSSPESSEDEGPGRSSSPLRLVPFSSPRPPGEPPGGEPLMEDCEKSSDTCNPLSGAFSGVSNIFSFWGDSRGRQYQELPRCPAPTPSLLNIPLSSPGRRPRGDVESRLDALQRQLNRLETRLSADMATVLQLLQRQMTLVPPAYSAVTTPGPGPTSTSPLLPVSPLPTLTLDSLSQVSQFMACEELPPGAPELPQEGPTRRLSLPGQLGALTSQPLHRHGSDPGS
cytochrome P450 2C19, sequence (P33261 whole entry): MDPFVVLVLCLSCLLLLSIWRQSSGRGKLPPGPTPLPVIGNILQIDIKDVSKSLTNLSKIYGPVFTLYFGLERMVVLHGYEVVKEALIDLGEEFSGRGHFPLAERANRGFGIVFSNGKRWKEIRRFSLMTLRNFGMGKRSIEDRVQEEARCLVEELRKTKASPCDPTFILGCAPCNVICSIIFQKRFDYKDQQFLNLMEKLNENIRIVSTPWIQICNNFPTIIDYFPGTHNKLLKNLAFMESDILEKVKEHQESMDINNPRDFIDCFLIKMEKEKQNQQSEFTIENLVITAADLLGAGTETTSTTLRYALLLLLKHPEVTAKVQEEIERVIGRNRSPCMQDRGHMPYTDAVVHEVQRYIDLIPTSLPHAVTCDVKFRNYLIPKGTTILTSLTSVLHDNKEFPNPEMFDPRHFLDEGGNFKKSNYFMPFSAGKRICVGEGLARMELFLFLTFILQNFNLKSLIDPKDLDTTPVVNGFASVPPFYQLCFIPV
KasA, sequence (P9WQD9 whole entry): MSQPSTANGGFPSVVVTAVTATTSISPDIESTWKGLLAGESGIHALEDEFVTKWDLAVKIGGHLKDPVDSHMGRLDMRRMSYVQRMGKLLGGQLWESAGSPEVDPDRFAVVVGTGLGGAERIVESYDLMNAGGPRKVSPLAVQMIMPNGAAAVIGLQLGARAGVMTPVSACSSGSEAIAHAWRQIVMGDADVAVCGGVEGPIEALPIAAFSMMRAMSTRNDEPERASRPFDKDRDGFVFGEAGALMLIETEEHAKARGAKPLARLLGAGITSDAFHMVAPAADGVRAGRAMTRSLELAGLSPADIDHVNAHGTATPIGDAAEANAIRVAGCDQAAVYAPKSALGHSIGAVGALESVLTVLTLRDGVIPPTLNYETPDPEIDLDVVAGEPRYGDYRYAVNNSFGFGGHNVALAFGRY

Row | Compound | MIC H37Rv (M. tuberculosis H37Rv [1]) | CC50 (in vitro) [µM] | solubility kinetic at 4 h (physchem) [µM] | IC50 [4] [µM] | Kp at 5 h ([10]; in vivo) | t > MIC ([10]; in vivo) [h] | AUC(0-t) ([10]; in vivo) [ng·h/mL] | other results
1 | CCCCS(=O)(=O)Nc1ccc2[nH]cc(C)c2c1 [Compound 4, N-(3-methyl-1H-indol-5-yl)butane-1-sulfonamide] | 1.6 µM (≈ 0.426 µg/mL) | > 190 |  |  |  |  |  | 
2 | CCCCS(=O)(=O)Nc1ccc2[nH]c(C(=O)OCC)c(C)c2c1 [Compound 5, ethyl 5-(butylsulfonamido)-3-methyl-1H-indole-2-carboxylate] | 0.20 µM (≈ 0.0677 µg/mL) | > 150 | 0.895 (≈ 0.303 µg/mL) |  |  |  |  | half-life ([2]; microsomes): < 0.5 min
3 | CCCCS(=O)(=O)Nc1ccc2[nH]c(C(N)=O)c(C)c2c1 [Compound 8, 5-(butylsulfonamido)-3-methyl-1H-indole-2-carboxamide] | 3.1 µM (≈ 0.959 µg/mL) | > 160 | 45.5 (≈ 14.1 µg/mL) |  |  |  |  | half-life ([2]; microsomes): 6.16 min
4 | CCCCS(=O)(=O)Nc1ccc2[nH]c(C#N)c(C)c2c1 [Compound 9, N-(2-cyano-3-methyl-1H-indol-5-yl)butane-1-sulfonamide] | 0.78 µM (≈ 0.227 µg/mL) | 170 |  | 0.19 |  |  |  | MBC (M. tuberculosis [3]): 1.4 to 2.7 µM (≈ 0.408 to 0.787 µg/mL); increase of CFU in the lungs versus start of treatment (M. tuberculosis H37Rv [5]; 100 mg/kg po qd): about 1 log10 CFU; bacterial load in the spleen (M. tuberculosis H37Rv [5]): did not reduce the bacterial load in the spleen; plasma stability at 5 h [6]: ≥ 80%; MIC (M. tuberculosis H37Rv [1]; H37Rv): 780 µM (≈ 227 µg/mL); reduction in CFUs, killing kinetics (M. tuberculosis [7]; 103 MIC of compound, over 7 days, followed by re-growth): > 2 log10; cidality in vitro (M. tuberculosis [7]): in vitro bactericidal; plasma stability at 5 h [8]: ≥ 80%; IC50 at 20 min [9]: > 1 µM; half-life ([2]; mouse liver microsomes): 6.51 min
5 | CCCCCS(=O)(=O)Nc1ccc2[nH]c(C#N)c(C)c2c1 [Compound 10, N-(2-cyano-3-methyl-1H-indol-5-yl)pentane-1-sulfonamide] | 0.2 µM and 0.20 µM | 160 |  | 0.078 |  |  |  | MBC (M. tuberculosis [3]): 0.65 to 1.3 µM (≈ 0.199 to 0.397 µg/mL); bacterial growth in the lungs (M. tuberculosis H37Rv [5]; 100 mg/kg): permissive of bacterial growth in the lungs; activity in the lungs (M. tuberculosis H37Rv [5]; 200-mg/kg dosing regimen): bacteriostatic activity in the lungs; bacterial load in the spleen (M. tuberculosis H37Rv [5]): did not reduce the bacterial load in the spleen; plasma stability at 5 h [6]: ≥ 80%; cidality in vitro (M. tuberculosis [7]): in vitro bactericidal; killing in combination with INH (M. tuberculosis [7]): culture sterilization; IC50 (cytochrome P450 2C19): 0.542 µM; plasma stability at 5 h [8]: ≥ 80%; IC50 at 20 min [9]: > 1 µM; half-life ([2]; mouse liver microsomes): 4.08 min
6 | CCCCS(=O)(=O)Nc1ccc2[nH]c(CN)c(C)c2c1 [Compound 11, N-(2-(aminomethyl)-3-methyl-1H-indol-5-yl)butane-1-sulfonamide] | 100 µM (≈ 29.5 µg/mL) | 170 |  |  |  |  |  | 
7 | CCCCCS(=O)(=O)Nc1ccc2[nH]nc(C)c2c1 [Compound 13, N-(3-methyl-1H-indazol-5-yl)pentane-1-sulfonamide] | 0.12 µM (≈ 0.0338 µg/mL) | 89 | 476 (≈ 134 µg/mL) |  | 1.3 | 5 | 13900 | half-life ([2]; microsomes): 3.26 min
8 | CCCCS(=O)(=O)Nc1ccc2[nH]nc(Cl)c2c1 [Compound 14, N-(3-chloro-1H-indazol-5-yl)butane-1-sulfonamide] | 0.39 µM (≈ 0.112 µg/mL) | 22 | 443 (≈ 127 µg/mL) |  | 0.6 | 5 | 51700 | half-life ([2]; microsomes): 32.1 min
9 | Cc1n[nH]c2ccc(NS(=O)(=O)CCCC(F)(F)F)cc12 [Compound 15, 4,4,4-trifluoro-N-(3-methyl-1H-indazol-5-yl)butane-1-sulfonamide] | 0.25 µM (≈ 0.0803 µg/mL) | > 160 |  |  | 0.95 | 5 | 28400 | 
10 | O=S(=O)(CCCC(F)(F)F)Nc1ccc2[nH]nc(Cl)c2c1 [Compound 16, N-(3-chloro-1H-indazol-5-yl)-4,4,4-trifluorobutane-1-sulfonamide] | 0.20 µM (≈ 0.0683 µg/mL) | > 150 |  |  | 1.2 | 5 | 22000 | 
11 | CCCCCS(=O)(=O)Nc1ccc2[nH]nc(Cl)c2c1 [Compound 17, N-(3-chloro-1H-indazol-5-yl)pentane-1-sulfonamide] | 0.39 µM (≈ 0.118 µg/mL) | 170 |  |  | 1.7 | 5 | 34800 | 
12 | O=S(=O)(CCCCF)Nc1ccc2[nH]nc(Cl)c2c1 [Compound 18, N-(3-chloro-1H-indazol-5-yl)-4-fluorobutane-1-sulfonamide] | 0.20 µM (≈ 0.0612 µg/mL) | 160 |  |  |  |  |  | 
13 | NNC(=O)c1ccncc1 [INH, isoniazid, reference compound] |  |  |  | 0.5 |  |  |  | reduction in CFUs, controls (M. tuberculosis [11]; 4 weeks): ~ 2 log10; reduction in CFU, killing kinetics (M. tuberculosis [7]; 103 MIC, over 4 days, with rapid re-growth): > 3 log10
14 | Cc1n[nH]c2ccc(NS(=O)(=O)CCCCF)cc12 [JSF-3285, 4-fluoro-N-(3-methyl-1H-indazol-5-yl)butane-1-sulfonamide] | 0.20 µM (≈ 0.0571 µg/mL) | 170 | 175 (≈ 49.9 µg/mL) | 0.046 |  | 5 | 59300 | half-life ([12]; microsomes): 48.2 min; intrinsic clearance (Clint) in dog liver microsomes [12]: 124 µL/min/mg; improvement of efficacy of INH or RIF regimen on addition (M. tuberculosis [11]; 200 mg/kg added to 10 mg/kg INH or RIF): ~ 1 log10; additional reduction of bacterial burden compared to INH- and RIF-only treatment (M. tuberculosis [11]; 200 mg/kg alone): ~ 1 log10 CFUs; reduction of bacterial burden in the mouse lungs versus start of treatment (M. tuberculosis [11]; 200 mg/kg qd po alone or with 10 mg/kg INH or RIF, 4 weeks): more than 2 log10 CFUs; reduction in CFUs in infected lungs (M. tuberculosis [11]; 200–5 mg/kg qd and 20 mg/kg qd or bid, 4 weeks of treatment): 1.5–2.0 log10; MIC (Enterobacter cloacae): > 50 µg/mL; reduction in lung bacterial burden (CFUs) versus start of treatment (M. tuberculosis H37Rv [5]; 100 or 200 mg/kg qd po, 4 weeks of treatment): ~ 2 log10; MIC (Enterococcus faecium): > 50 µg/mL; MIC (Staphylococcus aureus): > 50 µg/mL; increase in mouse plasma exposure (AUC0–5h) over DG167 ([10]; in vivo): 30 fold; Kp at 5 h ([10]; lung and plasma, oral): 0.75; cidality in vitro (M. tuberculosis [7]): cidal to the H37Rv strain; killing in combination with INH (M. tuberculosis [7]): culture sterilization; IC50 (hERG): > 50 µM; half-life ([2]; mouse liver microsomes): 28.4 min; mycolic acid biosynthesis [13]: inhibited mycolic acid biosynthesis; MIC (Klebsiella pneumoniae): > 50 µg/mL; Kd (KasA): 0.0707 ± 0.0235 µM; MIC (Pseudomonas aeruginosa): > 50 µg/mL
15 | CO[C@H]1/C=C/O[C@@]2(C)Oc3c(C)c(O)c4c(O)c(c(/C=N/N5CCN(C)CC5)c(O)c4c3C2=O)NC(=O)/C(C)=C\C=C\[C@H](C)[C@H](O)[C@@H](C)[C@@H](O)[C@@H](C)[C@H](OC(C)=O)[C@@H]1C [RIF, rifampicin, reference compound] |  |  |  | 0.3 |  |  |  | reduction in CFUs, controls (M. tuberculosis [11]; 4 weeks): ~ 2 log10
